Measurements reported in patent US20050272636A1, “Treatment and diagnosis of a reproductive disorder by measuring or inhibiting interferon-gamma” (Adelaide Research & Innovation Pty Ltd., priority 2002, published 2005).

Legend:
[1] = test system: murine uterine epithelial cells; assay: Effect of rIFNγ and rTGFβ on GM-CSF production in cultured uterine epithelial cells (Example 2); format: cell-based, mouse; settings: rTGFβ 5 ng/ml; DMEM +penicillin; two experiments
Description: Uterine Epithelial Cell Cultures. Uterine epithelial cells prepared as previously described (Robertson et al., Biol Reprod 46:1069-1079 (1992)) were pooled from 4-6 estrous C57B1/6 or C57B1/6×Balb/c F1 mice and plated in 1 ml culture wells (Nunc, Roskilde, Germany) at 1-2×10^5 cells per ml in 500 μl of Dulbecco's modified Eagles medium containing 10% FCS, […] streptomycin sulphate and […] benzyl penicillin (DMEM +penicillin). After 4 h incubation at 37° C. in 5% CO2 to allow cell adherence, a further 500 μl of DMEM +penicillin, or DMEM +penicillin plus recombinant mouse IFNγ (rIFNγ) and/or recombinant human TGFβ1 (rTGFβ), were added. In some experiments, penicillin-free DMEM (DMEM −penicillin) was used throughout. Culture supernatants were collected and replaced with fresh medium at 16 hours, then collected again 24 hours later, at which time GM-CSF content was determined and adherent cells were quantified as previously described (Robertson et al., Biol Reprod 46:1069-1079 (1992)). All treatments were performed in duplicate or triplicate. rTGFβ and rIFNγ were obtained from R&D Systems, UK.
GM-CSF bioassay: GM-CSF was assayed using the GM-CSF dependant cell line FD 5/12, essentially as previously described (Robertson et al., Biol Reprod 46:1069-1079 (1992)). Cell proliferation was determined by pulsing with 1 μCi of [^3H]-thymidine per well for the last 6 h of the assay. The minimal detectable amount of GM-CSF was 20 pg/ml. The identity of the bioactivity in uterine epithelial cell cultures was confirmed using a goat polyclonal antibody to murine GM-CSF (DNAX, Palo Alto, Calif.) as previously described (Robertson et al., Biol Reprod 46:1069-1079 (1992)). GM-CSF production is expressed as ng GM-CSF/10^5 cells/24 h. Recombinant mouse GM-CSF was obtained from R&D Systems.

[2] = test system: human cervical epithelial cells; assay: Effect of IFN-γ and TGFβ on GM-CSF synthesis in human cervical epithelial cells (Example 4); format: cell-based; settings: 0.5, 5.0 or 50 ng/ml TGFβ1 + 5.0 ng/ml IFN-γ; dose-responsive; 12 h
Description: Human cervical epithelial cells were cultured using a modification of the technique described by Rheinwald et al., Cell 1975 3: 33143 (1975). Cervical biopsies were obtained from consenting women undergoing hysterectomy for non-malignant gynaecological indications. All the women were pre-menopausal, but no distinction was made regarding the stage of their menstrual cycle at the time of surgery. The cervical biopsies were placed in ice-cold Hank's balanced salt solution for transport to the laboratory, washed twice in antibiotic-containing medium, and incubated overnight at 4° C. in Dulbecco's modified Eagle's medium (DMEM) containing 5 U dispase (Boehringer Mannheim). Large sheets of keratinocytes were mechanically stripped from the biopsy using sterile forceps after a subsequent 1 h incubation at room temperature. Disaggregation into single cells was facilitated by incubation in DMEM/0.25% trypsin/0.05% collagenase for 30 minutes at 37° C., and repeated aspiration using a needle and syringe. […]
Supernatant was collected 12 hours later and assayed for GM-CSF activity using a commercial human GM-CSF specific ELISA (R & D Systems) according to the manufacturer's instructions. The GM-CSF content of post-treatment supernatants were normalised to the GM-CSF content of corresponding 12 h (baseline) supernatants and expressed as a percentage of control values.

[3] = test system: IFNγ; assay: Inhibitors and antagonists counteracting the GM-CSF-inhibiting actions of IFNγ in uterine epithelial cells (Example 3); format: cell-based, mouse; settings: added in combination with IFNγ; dose-responsive, 5 ng/ml greater effect than 0.5 ng/ml
Description: Several inhibitors and antagonists of IFNγ were tested for their ability to counteract the GM-CSF-inhibiting actions of IFNγ in epithelial cells.
Uterine Epithelial Cell Cultures. Uterine epithelial cells prepared by pancreatin-trypsin digest as previously described (Robertson et al., (1992) Biol. Reprod. 46:1069-1079) were pooled from 4-6 estrous adult C57B1/6×CBA F1 female mice and plated in 1 ml culture wells (Nunc, Roskilde, Germany) at 1-2×10^5 cells per ml in 500 μl of RPMI containing 10% FCS and streptomycin (RPMI-FCS). Penicillin was omitted from culture media except where specified. After 4 h incubation at 37° C. in 5% CO2 to allow cell adherence, a further 500 μl of cytokines or antibodies in RPMI-FCS, or RPMI-FCS alone, were added. Cytokine treatments included recombinant mouse interferon-γ (rmIFNγ; R&D Systems), recombinant human transforming growth factor β1 (rhTGFβ1, R&D Systems), rhTGFβ2 (R&D Systems), rhTGFβ3 (OSI Pharmaceuticals). Antibody treatments included goat anti-mouse IFNγ receptor 1 (αIFNγR; R&D Systems AF1026) and hamster anti-mouse IFNγ (αIFNγ; R&D Systems MAB4851). Culture supernatants were collected and replaced with fresh complete RPMI-FCS alone at 16 hours, then collected again 24 hours later, at which time adherent cells were quantified as previously described (Robertson et al., (1992) Biol. Reprod. 46:1069-1079). The GM-CSF content of 24 h supernatants was determined by GM-CSF bioassay or immunoassay. All treatments were performed in duplicate or triplicate.
GM-CSF bioassay and immunoassay: Bioactive GM-CSF was assayed using the GM-CSF dependant cell line FD 5/12, essentially as previously described (Robertson et al., (1992) Biol. Reprod. 46:1069-1079). Cell proliferation was determined by the addition of 1 μCi of [^3H]-thymidine per well for the last 6 h of the assay. The minimal detectable amount of GM-CSF was […] The identity of the bioactivity in uterine epithelial cell cultures was confirmed using a goat polyclonal antibody to murine GM-CSF kindly provided by J. Schreurs (DNAX, Palo Alto, Calif.) as previously described (Robertson et al., (1992) Biol. Reprod. 46:1069-1079). GM-CSF immunoactivity was in some experiments measured by commercial mouse GM-CSF specific ELISA (R & D Systems) according to the manufacturer's instructions.

For “rhTGFβ1: recombinant human transforming growth factor β1 (R&D Systems)”, the “increase in GM-CSF production” value [1] was “approximately 6 fold”, the “effect of TGFβ on the inhibitory effect of IFN-γ on GM-CSF synthesis” value [2] was “counteract the inhibitory effect” and the “effect of TGFβ isoform on the inhibitory effect of IFNγ on GM-CSF synthesis” value [3] was “counteracted the inhibitory effect”.
